Results as given in patent US6992079B2, “Substituted 11-phenyl-dibenzazepine compounds useful for the treatment or prevention of diseases characterized by abnormal cell proliferation” (President Fellows of Harvard College, priority 1997, dated 2006).
pIC50: −log10 of the molar value. Where two headings read alike, the source gives them in different places.

Key:
Assay type in all cases: cell-based
MDA-MB-231/ATCC = assay: In-Vitro Testing SRB panel: Breast Cancer
KM12 = assay: In-Vitro Testing SRB panel: Colon Cancer; conditions: KM12, 48 h
SK-MEL-2 = assay: In-Vitro Testing SRB panel: Melanoma; conditions: SK-MEL-2, 48 h
NCI-H23 = conditions: NCI-H23, 48 h
OVCAR-4 = assay: In-Vitro Testing SRB panel: Ovarian Cancer; conditions: OVCAR-4, 48 h
MDA-MB-23 = assay: SRB antiproliferative assay; conditions: Homo sapiens, MDA-MB-23
Excerpt: (§1) The cells were passaged using Trypsin (Gibco).

MMRU = assay: SRB antiproliferative assay; conditions: Homo sapiens
Excerpt: as §1

RL-60 (TS) = assay: In-Vitro Testing SRB panel: Leukemia; conditions: 48 h
DU-145 = assay: In-Vitro Testing SRB panel: Prostate Cancer; conditions: DU-145, 48 h
T-47D = assay: In-Vitro Testing SRB panel: Breast Cancer; conditions: 48 h
BT-549 = assay: In-Vitro Testing SRB panel: Breast Cancer; conditions: BT-549, 48 h
HCT-15 = assay: In-Vitro Testing SRB panel: Colon Cancer; conditions: HCT-15, 48 h
786-0 = assay: In-Vitro Testing SRB panel: Renal Cancer; conditions: 786-0, 48 h
HCT-116 = assay: In-Vitro Testing SRB panel: Colon Cancer; conditions: HCT-116, 48 h
OVCAR-5 = assay: In-Vitro Testing SRB panel: Ovarian Cancer; conditions: OVCAR-5, 48 h
M14 = assay: In-Vitro Testing SRB panel: Melanoma; conditions: M14, 48 h
MOLT-4 = assay: In-Vitro Testing SRB panel: Leukemia; conditions: MOLT-4, 48 h
HT29 = assay: In-Vitro Testing SRB panel: Colon Cancer
[1] = Homo sapiens, read-out: LC50 (the source's name)

O=C(c1ccc([N+](=O)[O-])cc1)N1Cc2ccccc2C(c2ccccc2Cl)c2ccccc21 (centres unmarked) [Compound 28, N-(4′-Nitrobenzoyl)-11-(2′-chlorophenyl)-5,6-dihydro-11H-dibenz[b,e]azepine]
GI50 (MDA-MB-231/ATCC; Homo sapiens, MDA-MB-231, 48 h): 4940 nM | CC50 (MDA-MB-231/ATCC; Homo sapiens, MDA-MB-231/ATCC, 48 h, read-out: LC50 (the source's name)): > 100000 nM | TGI (MDA-MB-231/ATCC; MDA-MB-231/ATCC, 48 h): >1.00E−04 Molar | Percent Growth (MDA-MB-231/ATCC; MDA-MB-231/ATCC, log10 conc −4.0 Molar, 48 h): 22% | Percent Growth (MDA-MB-231/ATCC; MDA-MB-231/ATCC, log10 conc −5.0 Molar, 48 h): 36% | Percent Growth (MDA-MB-231/ATCC; MDA-MB-231/ATCC, log10 conc −6.0 Molar, 48 h): 72% | Percent Growth (MDA-MB-231/ATCC; MDA-MB-231/ATCC, log10 conc −7.0 Molar, 48 h): 96% | Percent Growth (MDA-MB-231/ATCC; MDA-MB-231/ATCC, log10 conc −8.0 Molar, 48 h): 103% | GI50 (KM12; Homo sapiens): 765 nM | CC50 (KM12; [1]): > 100000 nM | TGI (KM12): >1.00E−04 Molar | Percent Growth (KM12; log10 conc −4.0 Molar): 15% | Percent Growth (KM12; log10 conc −5.0 Molar): 26% | Percent Growth (KM12; log10 conc −6.0 Molar): 45% | Percent Growth (KM12; log10 conc −7.0 Molar): 84% | Percent Growth (KM12; log10 conc −8.0 Molar): 94% | GI50 (SK-MEL-2; Homo sapiens): 1760 nM | CC50 (SK-MEL-2; [1]): > 100000 nM | TGI (SK-MEL-2): 1.10E−05 Molar | Percent Growth (SK-MEL-2; log10 conc −4.0 Molar): −31% | Percent Growth (SK-MEL-2; log10 conc −5.0 Molar): 1% | Percent Growth (SK-MEL-2; log10 conc −6.0 Molar): 66% | Percent Growth (SK-MEL-2; log10 conc −7.0 Molar): 95% | Percent Growth (SK-MEL-2; log10 conc −8.0 Molar): 107% | GI50 (NCI-H23; Homo sapiens): 1610 nM | CC50 (NCI-H23; [1]): > 100000 nM | TGI (NCI-H23): >1.00E−04 Molar | Percent Growth (NCI-H23; log10 conc −4.0 Molar): 41% | Percent Growth (NCI-H23; log10 conc −5.0 Molar): 43% | Percent Growth (NCI-H23; log10 conc −6.0 Molar): 52% | Percent Growth (NCI-H23; log10 conc −7.0 Molar): 93% | Percent Growth (NCI-H23; log10 conc −8.0 Molar): 100% | GI50 (OVCAR-4; Homo sapiens): 974 nM | CC50 (OVCAR-4; [1]): > 100000 nM | TGI (OVCAR-4): >1.00E−04 Molar | Percent Growth (OVCAR-4; log10 conc −4.0 Molar): 10% | Percent Growth (OVCAR-4; log10 conc −5.0 Molar): 16% | Percent Growth (OVCAR-4; log10 conc −6.0 Molar): 50% | Percent Growth (OVCAR-4; log10 conc −7.0 Molar): 80% | Percent Growth (OVCAR-4; log10 conc −8.0 Molar): 98% | pIC50 (MDA-MB-23): 6.30 | pIC50 (MMRU; MMRU (Melanoma), 5% FCS/5 day incubation): 6.70 | pIC50 (MMRU; MMRU, 5% FCS/3 days): > 5.90 | GI50 (RL-60 (TS); Homo sapiens): 489 nM | CC50 (RL-60 (TS); Homo sapiens, RL-60 (TS), read-out: LC50 (the source's name)): > 100000 nM | TGI (RL-60 (TS); RL-60 (TS)): 7.71E−05 Molar | Percent Growth (RL-60 (TS); RL-60 (TS), log10 conc −4.0 Molar): 1% | Percent Growth (RL-60 (TS); RL-60 (TS), log10 conc −5.0 Molar): 5% | Percent Growth (RL-60 (TS); RL-60 (TS), log10 conc −6.0 Molar): 41% | Percent Growth (RL-60 (TS); RL-60 (TS), log10 conc −7.0 Molar): 71% | Percent Growth (RL-60 (TS); RL-60 (TS), log10 conc −8.0 Molar): 76% | TGI (DU-145): >1.00E−04 Molar | Percent Growth (DU-145; log10 conc −4.0 Molar): 27% | Percent Growth (DU-145; log10 conc −5.0 Molar): 30% | Percent Growth (DU-145; log10 conc −6.0 Molar): 54% | Percent Growth (DU-145; log10 conc −7.0 Molar): 98% | Percent Growth (DU-145; log10 conc −8.0 Molar): 100% | GI50 (DU-145; Homo sapiens): 1520 nM | CC50 (DU-145; [1]): > 100000 nM | GI50 (T-47D; Homo sapiens, T47D): 1440 nM | CC50 (T-47D; Homo sapiens, T47D, T-47D, read-out: LC50 (the source's name)): > 100000 nM | TGI (T-47D; T-47D): >1.00E−04 Molar | Percent Growth (T-47D; T-47D, log10 conc −4.0 Molar): 26% | Percent Growth (T-47D; T-47D, log10 conc −5.0 Molar): 21% | Percent Growth (T-47D; T-47D, log10 conc −6.0 Molar): 55% | Percent Growth (T-47D; T-47D, log10 conc −7.0 Molar): 90% | Percent Growth (T-47D; T-47D, log10 conc −8.0 Molar): 95% | TGI (BT-549): >1.00E−04 Molar | Percent Growth (BT-549; log10 conc −4.0 Molar): 34% | Percent Growth (BT-549; log10 conc −5.0 Molar): 46% | Percent Growth (BT-549; log10 conc −6.0 Molar): 70% | Percent Growth (BT-549; log10 conc −7.0 Molar): 87% | Percent Growth (BT-549; log10 conc −8.0 Molar): 98% | GI50 (BT-549; Homo sapiens): 6700 nM | CC50 (BT-549; [1]): > 100000 nM | TGI (HCT-15): >1.00E−04 Molar | Percent Growth (HCT-15; log10 conc −4.0 Molar): 29% | Percent Growth (HCT-15; log10 conc −5.0 Molar): 28% | Percent Growth (HCT-15; log10 conc −6.0 Molar): 40% | Percent Growth (HCT-15; log10 conc −7.0 Molar): 86% | Percent Growth (HCT-15; log10 conc −8.0 Molar): 99% | GI50 (HCT-15; Homo sapiens): 608 nM | CC50 (HCT-15; [1]): > 100000 nM | TGI (786-0): >1.00E−04 Molar | Percent Growth (786-0; log10 conc −4.0 Molar): 27% | Percent Growth (786-0; log10 conc −5.0 Molar): 31% | Percent Growth (786-0; log10 conc −6.0 Molar): 51% | Percent Growth (786-0; log10 conc −7.0 Molar): 102% | Percent Growth (786-0; log10 conc −8.0 Molar): 100% | GI50 (786-0; Homo sapiens): 1160 nM | CC50 (786-0; [1]): > 100000 nM | TGI (HCT-116): >1.00E−04 Molar | Percent Growth (HCT-116; log10 conc −4.0 Molar): 11% | Percent Growth (HCT-116; log10 conc −5.0 Molar): 19% | Percent Growth (HCT-116; log10 conc −6.0 Molar): 27% | Percent Growth (HCT-116; log10 conc −7.0 Molar): 93% | Percent Growth (HCT-116; log10 conc −8.0 Molar): 103% | GI50 (HCT-116; Homo sapiens): 447 nM | CC50 (HCT-116; [1]): > 100000 nM | GI50 (OVCAR-5; Homo sapiens): > 100000 nM | CC50 (OVCAR-5; [1]): > 100000 nM | TGI (OVCAR-5): >1.00E−04 Molar | Percent Growth (OVCAR-5; log10 conc −4.0 Molar): 68% | Percent Growth (OVCAR-5; log10 conc −5.0 Molar): 75% | Percent Growth (OVCAR-5; log10 conc −6.0 Molar): 91% | Percent Growth (OVCAR-5; log10 conc −7.0 Molar): 96% | Percent Growth (OVCAR-5; log10 conc −8.0 Molar): 110% | GI50 (M14; Homo sapiens): 941 nM | CC50 (M14; [1]): > 100000 nM | TGI (M14): 2.19E−05 Molar | Percent Growth (M14; log10 conc −4.0 Molar): −32% | Percent Growth (M14; log10 conc −5.0 Molar): 16% | Percent Growth (M14; log10 conc −6.0 Molar): 49% | Percent Growth (M14; log10 conc −7.0 Molar): 85% | Percent Growth (M14; log10 conc −8.0 Molar): 94% | GI50 (MOLT-4; Homo sapiens): 700 nM | CC50 (MOLT-4; [1]): > 100000 nM | TGI (MOLT-4): >1.00E−04 Molar | Percent Growth (MOLT-4; log10 conc −4.0 Molar): 24% | Percent Growth (MOLT-4; log10 conc −5.0 Molar): 24% | Percent Growth (MOLT-4; log10 conc −6.0 Molar): 44% | Percent Growth (MOLT-4; log10 conc −7.0 Molar): 82% | Percent Growth (MOLT-4; log10 conc −8.0 Molar): 109% | TGI (HT29; HT29, 48 h): >1.00E−04 Molar | Percent Growth (HT29; HT29, log10 conc −4.0 Molar, 48 h): 27% | Percent Growth (HT29; HT29, log10 conc −5.0 Molar, 48 h): 27% | Percent Growth (HT29; HT29, log10 conc −6.0 Molar, 48 h): 38% | Percent Growth (HT29; HT29, log10 conc −7.0 Molar, 48 h): 78% | Percent Growth (HT29; HT29, log10 conc −8.0 Molar, 48 h): 86% | GI50 (HT29; Homo sapiens, HT-29, 48 h): 505 nM | CC50 (HT29; Homo sapiens, HT-29, HT29, 48 h, read-out: LC50 (the source's name)): > 100000 nM
